Data from US12295939B2, “Substituted benzothiophene analogs as selective estrogen receptor degraders” (The Board of Trustees of the University of Illinois, priority 2018, dated 2025).

Legend:
[1] = tested on: tamoxifen-sensitive ER+ MCF-7:WS8 breast cancer cells; test: Growth inhibition in tamoxifen-sensitive ER+ MCF-7:WS8 breast cancer cells; format: cell-based; details: MCF7:WS8, MCF-7:WS8 cells; for IC50: assayed from 0.01 nM to 1 uM; for Emax: read-out: MCF7:WS8 Max efficacy (%)
[2] = tested on: tamoxifen-resistant MCF-7:5C breast cancer cells; test: Growth inhibition in tamoxifen-resistant MCF-7:5C breast cancer cells; format: cell-based; details: MCF7:5C, MCF-7:5C cells; for IC50: assayed from 0.01 nM to 1 uM; for Emax: read-out: MCF7:5C Max efficacy (%)
ER (ERE) = test: ER antagonism (ERE); format: cell-based
Procedure: (§1) Example compounds were assayed to determine ER downregulation, relative binding affinity, and ER antagonism.

ER = target: T1, ER (Homo sapiens, UniProt P03372); test: Relative binding affinity (RBA)
T1 construct: endogenous in cells
T1 sequence (P03372 1-595): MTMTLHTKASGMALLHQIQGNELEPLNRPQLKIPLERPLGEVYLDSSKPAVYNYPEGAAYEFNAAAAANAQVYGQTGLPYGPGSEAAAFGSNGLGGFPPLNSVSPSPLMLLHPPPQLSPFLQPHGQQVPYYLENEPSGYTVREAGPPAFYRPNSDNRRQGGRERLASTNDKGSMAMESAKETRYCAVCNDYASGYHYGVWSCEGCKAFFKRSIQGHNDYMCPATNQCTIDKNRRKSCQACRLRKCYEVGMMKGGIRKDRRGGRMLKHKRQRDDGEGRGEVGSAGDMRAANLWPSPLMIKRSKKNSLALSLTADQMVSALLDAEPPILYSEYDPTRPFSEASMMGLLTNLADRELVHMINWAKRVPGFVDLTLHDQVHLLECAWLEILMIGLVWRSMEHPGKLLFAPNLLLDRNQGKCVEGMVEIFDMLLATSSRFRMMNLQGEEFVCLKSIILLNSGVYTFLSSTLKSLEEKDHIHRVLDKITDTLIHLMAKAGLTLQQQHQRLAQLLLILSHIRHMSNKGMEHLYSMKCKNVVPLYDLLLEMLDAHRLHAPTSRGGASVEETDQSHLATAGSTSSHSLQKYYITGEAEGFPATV
Procedure: as §1

| Structure (SMILES) | IC50 [1] [nM] | Emax [1] [%] | IC50 [2] [nM] | Emax [2] [%] | IC50 (ER (ERE)) [nM] | RBA (%) (ER) |
| --- | --- | --- | --- | --- | --- | --- |
| O=C(c1ccc(O)cc1)c1sc2cc(O)ccc2c1Oc1ccc(OCCN2CC(CF)C2)cc1 [Compound 1, (3-(4-(2-(3-(fluoromethyl)azetidin-1-yl)ethoxy)phenoxy)-6-hydroxybenzo[b]thiophen-2-yl)(4-hydroxyphenyl) methanone] | 1.1 ± 0.1 | 75 | 1.2 ± 0.3 | 30 | 6.4 ± 0.4 | – |
| Cc1cc(O)ccc1C(=O)c1sc2cc(O)ccc2c1Oc1ccc(OCCN2CC(CF)C2)cc1 [Compound 2, (3-(4-(2-(3-(fluoromethyl)azetidin-1-yl)ethoxy)phenoxy)-6-hydroxybenzo[b]thiophen-2-yl)(4-hydroxy-2-methylphenyl) methanone] | 0.5 ± 0.05 | 80 | 7.9 ± 0.15 | 45 | – | – |
| O=C(c1ccccc1)c1sc2cc(O)ccc2c1Oc1ccc(OCCN2CC(CF)C2)cc1 [Compound 3, (3-(4-(2-(3-(fluoromethyl)azetidin-1-yl)ethoxy)phenoxy)-6-hydroxybenzo[b]thiophen-2-yl)(phenyl)methanone] | 0.55 ± 0.01 | 65 | 15 ± 4 | 60 | 4.3 ± 0.1 | 30.7 ± 7 |
| Cc1cc(F)ccc1C(=O)c1sc2cc(O)ccc2c1Oc1ccc(OCCN2CC(CF)C2)cc1 [Compound 4, (4-fluoro-2-methylphenyl)(3-(4-(2-(3-(fluoromethyl)azetidin-1-yl)ethoxy)phenoxy)-6-hydroxybenzo[b]thiophen-2-yl)methanone] | 0.3 ± 0.02 | 75 | 0.2 ± 0.02 | 50 | 2.7 ± 0.09 | – |
| Cc1cc(F)cc(C)c1C(=O)c1sc2cc(O)ccc2c1Oc1ccc(OCCN2CC(CF)C2)cc1 [Compound 5, (4-fluoro-2,6-dimethylphenyl)(3-(4-(2-(3-(fluoromethyl)azetidin-1-yl)ethoxy)phenoxy)-6-hydroxybenzo[b]thiophen-2-yl)methanone] | 0.41 ± 0.01 | 70 | 3.4 ± 0.5 | 55 | 3.5 ± 0.06 | – |
| Cc1ccccc1C(=O)c1sc2cc(O)ccc2c1Oc1ccc(OCCN2CC(CF)C2)cc1 [Compound 8, (3-(4-(2-(3-(fluoromethyl)azetidin-1-yl)ethoxy)phenoxy)-6-hydroxybenzo[b]thiophen-2-yl)(o-tolyl)methanone] | 0.73 ± 0.02 | 70 | 0.65 ± 0.03 | 40 | 1.5 ± 0.09 | 46.5 ± 7 |
| Cc1cccc(C)c1C(=O)c1sc2cc(O)ccc2c1Oc1ccc(OCCN2CC[C@@H](CF)C2)cc1 [Compound 9, (R)-(2,6-dimethylphenyl)(3-(4-(2-(3-(fluoromethyl)pyrrolidin-1-yl)ethoxy)phenoxy)-6-hydroxybenzo[b]thiophen-2-yl)methanone] | 0.1 ± 0.01 | 85 | 0.23 ± 0.06 | 25 | 45 ± 15 | – |
| O=C(c1ccccc1)c1sc2cc(O)ccc2c1Oc1ccc(OC2CN(CCCF)C2)cc1 [Compound 15, (3-(4-((1-(3-fluoropropyl)azetidin-3-yl)oxy)phenoxy)-6-hydroxybenzo[b]thiophen-2-yl)(phenyl)methanone] | 0.15 ± 0.02 | 60 | 0.12 ± 0.02 | 40 | 5.2 ± 0.06 | – |
| Cc1cc(F)ccc1C(=O)c1sc2cc(O)ccc2c1Oc1ccc(OC2CN(CCCF)C2)cc1 [Compound 16, (4-fluoro-2-methylphenyl)(3-(4-((1-(3-fluoropropyl)azetidin-3-yl)oxy)phenoxy)-6-hydroxybenzo[b]thiophen-2-yl)methanone] | 0.15 ± 0.02 | 70 | 0.95 ± 0.04 | 50 | 11 ± 0.5 | 38.1 ± 9 |
| Cc1cc(F)cc(C)c1C(=O)c1sc2cc(O)ccc2c1Oc1ccc(OC2CN(CCCF)C2)cc1 [Compound 17, (4-fluoro-2,6-dimethylphenyl)(3-(4-((1-(3-fluoropropyl)azetidin-3-yl)oxy)phenoxy)-6-hydroxybenzo[b]thiophen-2-yl)methanone] | 0.55 ± 0.01 | 75 | 0.15 ± 0.06 | 70 | – | – |
| Cc1ccccc1C(=O)c1sc2cc(O)ccc2c1Oc1ccc(OC2CN(CCCF)C2)cc1 [Compound 20, (3-(4-((1-(3-fluoropropyl)azetidin-3-yl)oxy)phenoxy)-6-hydroxybenzo[b]thiophen-2-yl)(o-tolyl)methanone] | 0.04 ± 0.006 | 75 | 4.9 ± 0.2 | 70 | 5.3 ± 0.08 | 27.8 ± 8 |
| Cc1cc(F)cc(C)c1C(=O)c1sc2cc(O)ccc2c1Oc1ccc(OCCN2CC[C@@H](CF)C2)cc1 [Compound 35, (R)-(4-fluoro-2,6-dimethylphenyl)(3-(4-(2-(3-(fluoromethyl)pyrrolidin-1-yl)ethoxy)phenoxy)-6-hydroxybenzo[b]thiophen-2-yl)methanone] | 0.56 ± 0.01 | 65 | 0.28 ± 0.07 | 40 | 12 ± 2 | – |
| Cc1ccccc1C(=O)c1sc2cc(O)ccc2c1Oc1ccc(OCCN2CCC2)cc1 [Compound 59, (3-(4-(2-(azetidin-1-yl)ethoxy)phenoxy)-6-hydroxybenzo[b]thiophen-2-yl)(o-tolyl)methanone] | 0.5 ± 0.05 | 70 | 0.31 ± 0.07 | 35 | – | – |
| Cc1ccccc1C(=O)c1sc2cc(O)ccc2c1Oc1ccc(OCCN2CC(C)C2)cc1 [Compound 60, (6-hydroxy-3-(4-(2-(3-methylazetidin-1-yl)ethoxy)phenoxy)benzo[b]thiophen-2-yl)(o-tolyl)methanone] | 0.02 ± 0.004 | 75 | 0.65 ± 0.01 | 55 | 1.9 ± 0.06 | – |
| O=C(c1ccc(F)cc1)c1sc2cc(O)ccc2c1Oc1ccc(OCCN2CC(CF)C2)cc1 [Compound 61, (3-(4-(2-(3-(fluoromethyl)azetidin-1-yl)ethoxy)phenoxy)-6-hydroxybenzo[b]thiophen-2-yl)(4-fluorophenyl) methanone] | 1.3 ± 0.1 | 70 | 0.58 ± 0.04 | 55 | 2.8 ± 0.1 | 9.15 ± 0.9 |
| O=C(c1cccc(F)c1)c1sc2cc(O)ccc2c1Oc1ccc(OCCN2CC(CF)C2)cc1 [Compound 62, (3-(4-(2-(3-(fluoromethyl)azetidin-1-yl)ethoxy)phenoxy)-6-hydroxybenzo[b]thiophen-2-yl)(3-fluorophenyl) methanone] | 0.28 ± 0.03 | 75 | 1.4 ± 0.2 | 60 | – | 120 ± 13 |
| Cc1ccc(C(=O)c2sc3cc(O)ccc3c2Oc2ccc(OCCN3CC(CF)C3)cc2)c(C)c1 [Compound 63, (2,4-dimethylphenyl)(3-(4-(2-(3-(fluoromethyl)azetidin-1-yl)ethoxy)phenoxy)-6-hydroxybenzo[b]thiophen-2-yl)methanone] | 0.47 ± 0.009 | 65 | 0.56 ± 0.005 | 50 | 7.4 ± 0.3 | – |
| Cc1cc(F)cc(C)c1C(=O)c1sc2cc(O)ccc2c1Oc1ccc(OCCN2CC[C@H](CF)C2)cc1 [Compound 64, (S)-(4-fluoro-2,6-dimethylphenyl)(3-(4-(2-(3-(fluoromethyl)pyrrolidin-1-yl)ethoxy)phenoxy)-6-hydroxybenzo[b]thiophen-2-yl)methanone] | 0.36 ± 0.001 | 70 | 0.16 ± 0.1 | 50 | 0.05 ± 0.001 | – |
| Cc1ccccc1C(=O)c1sc2cc(O)ccc2c1Oc1ccc(OCCN2CCCCC2)cc1 [Compound 65, (6-hydroxy-3-(4-(2-(piperidin-1-yl)ethoxy)phenoxy)benzo[b]thiophen-2-yl)(o-tolyl)methanone] | 0.39 ± 0.05 | 65 | > 1000 | – | 2.1 ± 0.06 | 91.8 ± 6 |
| O=C(c1cccc(F)c1)c1sc2cc(O)ccc2c1Oc1ccc(OC2CN(CCCF)C2)cc1 [Compound 66, (3-fluorophenyl)(3-(4-((1-(3-fluoropropyl)azetidin-3-yl)oxy)phenoxy)-6-hydroxybenzo[b]thiophen-2-yl)methanone] | 0.27 ± 0.006 | 70 | 0.12 ± 0.03 | 35 | – | – |
| Cc1cc(F)cc(C)c1C(=O)c1sc2cc(O)ccc2c1Oc1ccc(OC2CN(C3CC3)C2)cc1 [Compound 67, (3-(4-((1-cyclopropylazetidin-3-yl)oxy)phenoxy)-6-hydroxybenzo[b]thiophen-2-yl)(4-fluoro-2,6-dimethylphenyl) methanone] | 0.42 ± 0.04 | 65 | 1 ± 0.8 | 20 | – | – |
| C[C@]12CC[C@@H]3c4ccc(O)cc4C[C@@H](CCCCCCCCC[S+]([O-])CCCC(F)(F)C(F)(F)F)[C@H]3[C@@H]1CC[C@@H]2O (some centres unmarked) [Fulvestrant, fulvestrant, reference compound] | 0.48 ± 0.03 | 75 | 1.9 ± 0.01 | 55 | […] | – |
